{"source": "patent US6335157B1", "about": "“Method based on localization of Hsp90 to the centrosome” (The European Molecular Biology Laboratory, priority 1999, dated 2002)", "system": "Hela and human epithelial kidney 293 cells", "experiment": "Geldanamycin treatment of cells, immunofluorescence staining with anti-α-tubulin, anti-γ-tubulin and anti-Hsp90 antibodies", "format": "cell-based", "details": "1 μg/ml geldanamycin", "protocol": "Geldanamycin specifically interferes with the function of Hsp90 by binding to the ATP binding site of Hsp90 (Prodromou et al., 1997, Cell 90:65-75; Stebbins et al., 1997, Cell 89:239-250). Hela and human epithelial kidney 293 cells were treated with 1 μg/ml geldanamycin for times ranging from […] (15 minutes, 30 minutes, 1 hour, 5 hours, 15 hours, 20 hours and 30 hours) and were stained with anti-α-tubulin, anti-γ-tubulin and anti-Hsp90 antibodies. […] However, aberrant mitotic spindles were detected from as early as 1 hour of treatment with geldanamycin. More than 50% of the mitotic figures produced in the presence of the drug after 20 hours of treatment contained aberrant mitotic figures in which the centrosomes, the spindles, and the distribution of chromatin were severely disrupted. […] The spindles of these cells were rather asymmetric, with unequal amounts of microtubules in each hemi-spindle and spindle poles very often detached from the centrosome. The aster microtubules which are organized around the centrosome were also abnormal in number and distribution. […] About 50% of the cells contained misaligned chromosomes. Thus, while the centrosome and the cytoskeleton of interphase cells were insensitive to geldanamycin, mitotic centrosomes cannot be properly formed in the presence of geldanamycin. […] Therefore, notwithstanding the possible contribution of other non-centrosomal functions of Hsp90 to some of these phenotypes, it is clear that the inhibition of the function of Hsp90 results in abnormalities in centrosome structure.", "data": [{"molecule": "COC1=C2C[C@@H](C)C[C@H](OC)[C@H](O)[C@@H](C)/C=C(\\C)[C@H](OC(N)=O)[C@@H](OC)/C=C\\C=C(/C)C(=O)NC(=CC1=O)C2=O", "note": "[geldanamycin]", "values": [{"measurement": "cells containing misaligned chromosomes", "result": "About 50%"}, {"measurement": "earliest treatment time at which aberrant mitotic spindles were detected", "result": 1, "unit": "h"}, {"measurement": "mitotic figures that were aberrant (centrosomes, spindles and distribution of chromatin severely disrupted)", "setting": "after 20 hours of treatment", "result": "More than 50%"}]}]}
